The values below come from US11390894B2, “Biological processes for the production of aryl sulfates” (CysBio ApS, priority 2014, dated 2022).

Structures are written as SMILES.

One data set relates to SULT1E1 from chicken. Nature of the data set: Sulfation of phenolic compounds in vivo by E. coli strain expressing sulfotransferase. It counts as cell-based, Gallus gallus domesticus. The conditions noted are these: M9, 1 mM IPTG, overnight 37° C.; start concentration per compound 61-287 μM. Here is the method:
(§1) The concentration of p-courmaric acid (pHCA) and zosteric acid in the supernatant was quantified by high performance (HPLC) and compared to chemical standards. HPLC was done on a Thermo setup using a HS-F5 column and mobile phases: 5 mM ammonium formate pH 4.0 (A) and acetonitrile (B) at 1.5 mL min-1, using a gradient elution starting at 5% B. From 0.5 min after injection to 7 min, the fraction of B increased linearly from 5% to 60%, and between 9.5 min and 9.6 the fraction of B decreased back to 5%, and remaining there until 12 min. pHCA and zosteric acid were quantified by measuring absorbance at 277 nm.
(§2) To further test the range of substrates that can be sulfated, we used strains carrying plasmids expressing SULT1A1 from rat (Rattus norvegicus) and SULT1E1 from chicken (Gallus gallus domesticus) (Example 1) cloned into the expression vector pETDuet-1, and cysDNCQ from E. coli cloned into expression vector pRSFDuet-1 (Example 2). The plasmids were introduced into the E. coli expression strain BL21(DE3)pLysS as described previously, selecting for transformants with appropriate antibiotics, namely 34 μg mL^1 chloramphenicol for pLysS, 100 μg mL^−1 ampicillin for pETDuet-1-based vectors, and 100 μg mL^−1 kanamycin for pRSFDuet-1-based vectors. […] A control strain without a sulfotransferase gene or cysDNCQ operon was also examined.
(§3) The strains were precultured in 2×YT medium with appropriate antibiotics. 10 μL of these precultures were used to inoculate M9 media with 1 mM IPTG and none or a single substrate for sulfation. After overnight growth at 37° C., 300 rpm the supernatants were withdrawn and examined by HPLC as described in Example 1. The compounds were detected by UV absorbance.

The next data set addresses T1, SULT1A1 rat + CysDNCQ (Rattus norvegicus, UniProt P17988).
T1 construct: 1, 3, 4, 5, and 6 were cloned amplified from liver tissue cDNA (Zyagen) by PCR; expressed in transfected cells; host or cells: E. coli BL21(DE3)pLysS with pETDuet-1 (SULT1A1) and pRSFDuet-1 (cysDNCQ)
Nature of the data set: Sulfation of phenolic compounds in vivo by E. coli strain expressing sulfotransferase with cysDNCQ. It counts as cell-based. The conditions noted are these: M9, 1 mM IPTG, overnight 37° C.; start concentration per compound 61-287 μM. Here is the method: as §1, §2, §3

For the next data set, the target named is T2, SULT1A1 from rat (Rattus norvegicus, UniProt P17988).
T2 construct: 1, 3, 4, 5, and 6 were cloned amplified from liver tissue cDNA (Zyagen) by PCR; expressed in transfected cells; host or cells: E. coli BL21(DE3)pLysS, plasmid pETDuet-1
T2 sequence (P17988 whole entry): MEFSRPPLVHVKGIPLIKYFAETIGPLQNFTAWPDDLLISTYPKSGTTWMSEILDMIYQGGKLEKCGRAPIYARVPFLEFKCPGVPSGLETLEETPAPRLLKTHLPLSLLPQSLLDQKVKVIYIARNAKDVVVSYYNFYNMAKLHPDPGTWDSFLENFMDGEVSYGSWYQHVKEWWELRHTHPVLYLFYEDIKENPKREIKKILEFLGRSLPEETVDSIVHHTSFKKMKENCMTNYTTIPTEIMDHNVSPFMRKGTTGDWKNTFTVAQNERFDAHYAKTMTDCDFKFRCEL
Briefly: Sulfation of phenolic compounds in vivo by E. coli strain expressing sulfotransferase. It counts as cell-based. The conditions noted are these: M9, 1 mM IPTG, overnight 37° C.; start concentration per compound 61-287 μM. Here is the method:
as §1, §2, §3

The next data set has as its system E. coli MG1655. Nature of the data set: Toxicity of unsulfated or sulfated product: growth rates of E. coli. It counts as cell-based. As to conditions: M9 0.2% glucose, pH 7, 37° C.; 10-40 mM pHCA or 20 or 40 mM zosteric acid. The text has this:
All media preparations had been adjusted to pH 7. […] Filled squares represent growth rates in media with pHCA.

T1 sequence (P17988 whole entry): as above

`O=C(O)CCc1ccc(O)cc1` [3-(4-Hydroxyphenyl) propionic acid]: the “percent reduction in concentration compared to the control strain, SULT1E1” value (from here on “percent reduction in concentration … SULT1E1”) with SULT1E1 from chicken is on record as 1%. Further, on SULT1A1 rat + CysDNCQ, the “percent reduction in concentration compared to the control strain, SULT1A1 + CysDNCQ” value (from here on “percent reduction … SULT1A1 + CysDNCQ”) worked out at 7%. On SULT1A1 from rat, the “percent reduction in concentration compared to the control strain, SULT1A1” value came to 3%.
The matching figures for `O=C(O)C(=O)Cc1ccc(O)cc1` [4-Hydroxyphenyl pyruvic acid]: 100%, 64% and 47%.
Turning to `CC(=O)Nc1ccc(O)cc1` [4-acetamidophenol, reference compound], the “percent reduction in concentration … SULT1E1” value with SULT1E1 from chicken was found to be 10%. Also, the “percent reduction … SULT1A1 + CysDNCQ” value at SULT1A1 rat + CysDNCQ was found to be 30%. At SULT1A1 from rat, the “percent reduction in concentration compared to the control strain, SULT1A1” value is listed as 24%.
Regarding `O=C(O)c1ccc(O)cc1` [4-hydroxybenzoic acid], in the data set on SULT1E1 from chicken, the “percent reduction in concentration … SULT1E1” value worked out at 4%. At SULT1A1 rat + CysDNCQ, the “percent reduction … SULT1A1 + CysDNCQ” value is listed as 6%. Moreover, the “percent reduction in concentration compared to the control strain, SULT1A1” value at SULT1A1 from rat stood at 5%.
The matching figures for `O=c1cc(-c2ccc(O)cc2)oc2cc(O)cc(O)c12` [Apigenin]: 98%, 99% and 41%.
Take `COc1cc(/C=C/C(=O)O)ccc1O` [Ferulic acid]: the “percent reduction in concentration … SULT1E1” value in the data set with SULT1E1 from chicken worked out at 67%. The “percent reduction … SULT1A1 + CysDNCQ” value at SULT1A1 rat + CysDNCQ turned out to be 100%. The “percent reduction in concentration compared to the control strain, SULT1A1” value on SULT1A1 from rat turned out to be 72%.
For `O=c1cc(-c2ccc(O)c(O)c2)oc2cc(O)cc(O)c12` [Luteolin], the “percent reduction in concentration … SULT1E1” value with SULT1E1 from chicken was determined as 0%. For the same compound, on SULT1A1 rat + CysDNCQ, the “percent reduction … SULT1A1 + CysDNCQ” value was found to be 37%. The “percent reduction in concentration compared to the control strain, SULT1A1” value at SULT1A1 from rat is listed as 27%.
As to `O=c1c(O)c(-c2ccc(O)c(O)c2)oc2cc(O)cc(O)c12` [Quercetin], the “percent reduction in concentration … SULT1E1” value in the data set with SULT1E1 from chicken was determined as 74%. The “percent reduction … SULT1A1 + CysDNCQ” value on SULT1A1 rat + CysDNCQ came to 81%. On SULT1A1 from rat, the “percent reduction in concentration compared to the control strain, SULT1A1” value is 75%.
For the compound `COc1cc(C(=O)O)ccc1O` [Vanillic acid], in the data set with SULT1E1 from chicken, the “percent reduction in concentration … SULT1E1” value turned out to be 0%. The “percent reduction … SULT1A1 + CysDNCQ” value at SULT1A1 rat + CysDNCQ is given as 39%. Besides, the “percent reduction in concentration compared to the control strain, SULT1A1” value on SULT1A1 from rat is on record as 33%.
For `O=c1c(O)c(-c2ccc(O)c(O)c2)oc2cc(O)ccc12` [fisetin], the “percent reduction in concentration … SULT1E1” value with SULT1E1 from chicken came out at 98%. The “percent reduction … SULT1A1 + CysDNCQ” value on SULT1A1 rat + CysDNCQ turned out to be 100%. In addition, on SULT1A1 from rat, the “percent reduction in concentration compared to the control strain, SULT1A1” value worked out at 98%.
As for `O=C(O)/C=C/c1ccc(O)cc1` [pHCA, p-coumaric acid], the “toxicity to the cells (growth rates in exponential growth phase, FIG. 5)” value with E. coli MG1655 is given as “toxic to the cells”.
